{"source": "paper PMC12655426", "about": "(Pharmaceutics, 2025)", "type_in_all_cases": "cell-based", "key": {"human OAT1": {"target": "T1, human OAT1 (Homo sapiens, UniProt Q4U2R8)", "T1 construct": "host or cells: HEK293, stably transfected", "T1 sequence (Q4U2R8 1-563)": "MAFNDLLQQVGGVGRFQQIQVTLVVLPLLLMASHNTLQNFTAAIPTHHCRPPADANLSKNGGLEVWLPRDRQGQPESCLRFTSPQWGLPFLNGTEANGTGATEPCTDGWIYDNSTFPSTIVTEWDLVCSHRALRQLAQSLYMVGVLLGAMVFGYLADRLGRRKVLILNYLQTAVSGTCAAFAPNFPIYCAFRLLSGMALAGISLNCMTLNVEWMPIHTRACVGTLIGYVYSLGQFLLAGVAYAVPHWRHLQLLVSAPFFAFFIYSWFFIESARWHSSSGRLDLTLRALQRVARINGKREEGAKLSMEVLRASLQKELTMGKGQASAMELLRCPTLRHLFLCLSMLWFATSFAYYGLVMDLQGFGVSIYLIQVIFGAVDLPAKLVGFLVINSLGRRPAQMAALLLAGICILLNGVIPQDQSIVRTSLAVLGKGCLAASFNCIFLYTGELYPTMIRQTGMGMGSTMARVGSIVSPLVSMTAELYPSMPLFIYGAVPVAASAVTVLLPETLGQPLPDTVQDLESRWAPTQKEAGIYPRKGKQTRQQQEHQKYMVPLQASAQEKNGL", "assay": "Polyphenol inhibition of OAT1-mediated OTA uptake in HEK293 cells", "conditions": "for OTA uptake, fraction of vehicle control: polyphenol 10 μM, 300 nM OTA, 5 min", "experimental": "(§1) Because OATP1A2 is expressed at exceptionally low levels in the apical membrane of the kidney as well as in the liver and intestine, interaction studies focused on OAT1, OAT3, OAT4, and BCRP as these will have a greater impact on circulating polyphenol levels. […] Uptake assays were performed in three independent experiments, each in technical triplicate.\n(§2) A p-value < 0.05 was considered statistically significant. For the estimation of IC50 or EC50 values, transport activity data were fitted with the following four-parameter logistic models: V=Bottom+Top−Bottom/1+I/IC50^h for inhibitors V=Bottom+[I]^h×(Top−Bottom)/[I]^h+EC50^h for activators where V is transport activity expressed as a percentage of vehicle control, [I] is inhibitor (or activator) concentration, Top and Bottom are the asymptotic plateaus, IC50 or EC50 is the concentration producing half-maximal inhibition (or activation), and h is the Hill slope. All data analyses were performed using GraphPad Prism version 10.2.3 (GraphPad). Parameter estimates are reported as best-fit ± standard error from three independent experiments, each run in technical triplicate."}, "OAT4": {"target": "T2, OAT4 (Homo sapiens, UniProt Q9NSA0)", "T2 sequence (Q9NSA0 1-550)": "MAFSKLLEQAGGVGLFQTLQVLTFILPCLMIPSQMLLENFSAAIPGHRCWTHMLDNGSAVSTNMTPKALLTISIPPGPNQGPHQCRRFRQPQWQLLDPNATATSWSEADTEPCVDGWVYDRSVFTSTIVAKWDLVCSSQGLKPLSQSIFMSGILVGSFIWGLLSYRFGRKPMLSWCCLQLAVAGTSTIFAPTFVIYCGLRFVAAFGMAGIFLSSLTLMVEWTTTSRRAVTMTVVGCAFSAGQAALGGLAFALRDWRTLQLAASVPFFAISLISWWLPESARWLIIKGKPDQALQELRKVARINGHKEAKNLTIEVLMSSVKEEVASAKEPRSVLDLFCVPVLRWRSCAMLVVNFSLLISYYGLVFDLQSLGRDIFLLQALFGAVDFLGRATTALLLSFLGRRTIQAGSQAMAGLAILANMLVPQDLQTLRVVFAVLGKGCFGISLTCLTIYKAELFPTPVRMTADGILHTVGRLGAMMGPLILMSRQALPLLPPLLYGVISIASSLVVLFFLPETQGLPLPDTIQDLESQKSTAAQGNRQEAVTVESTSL", "assay": "Polyphenol inhibition of OAT4-mediated OTA uptake in HEK293 cells", "parameters": "host or cells: HEK293, stably transfected", "conditions": "polyphenol 10 μM, 300 nM OTA, 5 min", "experimental": "as §1, §2"}, "OAT3": {"target": "T3, OAT3 (Homo sapiens, UniProt Q8TCC7)", "T3 sequence (Q8TCC7 1-542)": "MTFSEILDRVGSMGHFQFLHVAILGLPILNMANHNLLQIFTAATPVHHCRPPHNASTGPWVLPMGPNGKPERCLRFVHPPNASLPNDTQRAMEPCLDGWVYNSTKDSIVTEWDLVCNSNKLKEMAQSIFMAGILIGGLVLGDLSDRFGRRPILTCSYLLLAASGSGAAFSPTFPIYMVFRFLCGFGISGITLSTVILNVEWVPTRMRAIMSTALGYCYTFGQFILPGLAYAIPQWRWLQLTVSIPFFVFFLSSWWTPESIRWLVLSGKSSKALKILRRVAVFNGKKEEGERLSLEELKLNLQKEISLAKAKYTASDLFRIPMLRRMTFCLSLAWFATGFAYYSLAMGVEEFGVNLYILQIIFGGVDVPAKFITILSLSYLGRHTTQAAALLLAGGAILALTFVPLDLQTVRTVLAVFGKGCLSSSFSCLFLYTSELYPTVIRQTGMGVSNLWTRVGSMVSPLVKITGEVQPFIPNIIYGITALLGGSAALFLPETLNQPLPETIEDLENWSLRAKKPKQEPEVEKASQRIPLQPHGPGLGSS", "assay": "Polyphenol inhibition of OAT3-mediated OTA uptake in HEK293 cells", "parameters": "host or cells: HEK293, stably transfected", "conditions": "for OTA uptake, fraction of vehicle control: polyphenol 10 μM, 300 nM OTA, 5 min", "experimental": "as §1, §2"}, "human BCRP": {"target": "T4, human BCRP (Homo sapiens, UniProt Q9UNQ0)", "T4 sequence (Q9UNQ0 1-655)": "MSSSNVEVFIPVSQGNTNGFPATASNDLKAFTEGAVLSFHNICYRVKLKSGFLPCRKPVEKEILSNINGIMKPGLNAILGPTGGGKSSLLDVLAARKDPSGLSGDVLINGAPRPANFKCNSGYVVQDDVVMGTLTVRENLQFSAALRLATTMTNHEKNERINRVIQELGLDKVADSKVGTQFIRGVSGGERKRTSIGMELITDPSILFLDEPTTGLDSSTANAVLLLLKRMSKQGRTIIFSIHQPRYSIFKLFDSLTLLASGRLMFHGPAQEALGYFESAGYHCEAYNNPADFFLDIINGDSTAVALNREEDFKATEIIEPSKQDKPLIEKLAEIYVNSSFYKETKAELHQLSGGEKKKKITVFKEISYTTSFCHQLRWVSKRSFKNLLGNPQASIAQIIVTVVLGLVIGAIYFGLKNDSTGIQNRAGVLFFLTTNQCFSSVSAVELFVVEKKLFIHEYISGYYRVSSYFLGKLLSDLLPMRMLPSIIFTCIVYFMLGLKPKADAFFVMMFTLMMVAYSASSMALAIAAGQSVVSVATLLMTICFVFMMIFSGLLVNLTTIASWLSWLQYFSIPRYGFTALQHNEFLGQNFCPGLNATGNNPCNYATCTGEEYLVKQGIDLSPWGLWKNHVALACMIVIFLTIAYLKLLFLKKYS", "assay": "Polyphenol modulation of BCRP-mediated OTA efflux in MDCK-II cells", "parameters": "host or cells: MDCK-II, transient plasmid transfection", "experimental": "The concentrations of polyphenols tested were as follows: ECG and miquelianin: 100, 200, 400, 600, 800, 1000 μM; caffeic acid: 50, 100, 500, 1000, 5000, 10,000 μM; luteolin: 0.1, 1, 10, 20, 25, 40, 50, 60, 100, 150 μM; myricetin: 5, 10, 50, 100, 250, 500, 650, 750, 850, 1000 μM. All other assay conditions were as described above. Transport activity was expressed as percent of vehicle control and fitted to a four-parameter logistic model to obtain half-maximal inhibitory concentration (IC50) values (for inhibition) or half-maximal effective concentration (EC50) values (for activation). Three independent experiments, each with technical triplicate, were performed for every compound.\nas §2"}}, "note": "pEC50, pIC50: −log10 of the molar value. Where two headings read alike, the source gives them in different places.", "data": [{"molecule": "O=C(O[C@@H]1Cc2c(O)cc(O)cc2O[C@@H]1c1ccc(O)c(O)c1)c1cc(O)c(O)c(O)c1", "note": "[ECG, (-)-Epicatechin-3-O-gallate]", "values": [{"measurement": "OTA uptake, fraction of vehicle control", "setting": "human OAT1", "result": "did not significantly inhibit"}, {"measurement": "OTA uptake, fraction of vehicle control", "setting": "OAT4", "result": "did not significantly inhibit"}, {"measurement": "OTA uptake, fraction of vehicle control", "setting": "OAT3", "result": "did not significantly inhibit"}, {"measurement": "pIC50", "setting": "human BCRP; read-out: IC50, inhibition of BCRP-mediated OTA transport, 300 nM OTA, efflux ratio as % of vehicle control", "result": 3.31}]}, {"molecule": "quercetin 3-O glucuronide [Miquelianin]", "values": [{"measurement": "OTA uptake, fraction of vehicle control", "setting": "human OAT1", "result": "no significant effects"}, {"measurement": "OTA uptake, fraction of vehicle control", "setting": "OAT4", "result": "no significant effects"}, {"measurement": "OTA uptake, fraction of vehicle control", "setting": "OAT3", "result": "0.58 fold of vehicle control"}, {"measurement": "effect on BCRP-mediated OTA transport", "setting": "human BCRP; 300 nM OTA, 100 to 1000 μM", "result": "no appreciable inhibition or activation"}]}, {"molecule": "O=c1c(O)c(-c2cc(O)c(O)c(O)c2)oc2cc(O)cc(O)c12", "note": "[myricetin]", "values": [{"measurement": "OTA uptake, fraction of vehicle control", "setting": "human OAT1", "result": "0.73 fold of vehicle control"}, {"measurement": "OTA uptake, fraction of vehicle control", "setting": "OAT4", "result": "0.82 fold of vehicle control"}, {"measurement": "OTA uptake, fraction of vehicle control", "setting": "OAT3", "result": "0.74 fold of vehicle control"}, {"measurement": "pIC50", "setting": "human BCRP", "result": 3.37}]}, {"molecule": "O=C(O)/C=C/c1ccc(O)c(O)c1", "note": "[caffeic acid]", "values": [{"measurement": "OTA uptake, fraction of vehicle control", "setting": "human OAT1", "result": "did not significantly inhibit"}, {"measurement": "OTA uptake, fraction of vehicle control", "setting": "OAT4", "result": "did not significantly inhibit"}, {"measurement": "OTA uptake, fraction of vehicle control", "setting": "OAT3", "result": "did not significantly inhibit"}, {"measurement": "pEC50", "setting": "human BCRP", "result": 3.15}, {"measurement": "maximal stimulation of BCRP-mediated OTA efflux", "setting": "human BCRP; 300 nM OTA", "result": "around 2 fold of control"}]}, {"molecule": "O=c1cc(-c2ccc(O)c(O)c2)oc2cc(O)cc(O)c12", "note": "[luteolin]", "values": [{"measurement": "decrease of OAT1-mediated OTA uptake", "setting": "human OAT1; 10 µM", "result": 72, "unit": "%"}, {"measurement": "OTA uptake, fraction of vehicle control", "setting": "human OAT1", "result": "0.28 fold of vehicle control"}, {"measurement": "OTA uptake, fraction of vehicle control", "setting": "OAT4", "result": "0.7 fold of vehicle control"}, {"measurement": "decrease of OAT3-mediated OTA uptake", "setting": "OAT3; 10 µM", "result": 64, "unit": "%"}, {"measurement": "OTA uptake, fraction of vehicle control", "setting": "OAT3", "result": "0.36 fold of vehicle control"}, {"measurement": "pIC50", "setting": "human BCRP", "result": 4.66}]}]}
